Experimental data from ChEMBL document CHEMBL1201862, “PubChem BioAssay data set” (2004).
The source made the active and inactive calls.

Key:
[1] = reduction of Shn3 3'UTR-driven luciferase in osteoblasts – cell-based, Clone20 osteoblasts, firefly luciferase, cherry-picked, dose response (AID 624132); type: functional;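 further: firefly luciferase luminescence from reporter carrying the Shn3 3'UTR in osteoblasts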
[2] = THP-1 cell cytotoxicity, dose response, cytotoxicity control for non-replicating M. tuberculosis project (AID 489025); type: functional
cells [3] = type: functional
[4] = reduced cellular PGC1a acetyl-lysine signal – cell-based, cherry-picked samples, dose response (AID 720514); type: functional;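 further: potency may reflect raised or lowered acetylation signal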
[5] = loss of viability in HepG2 cells – cell-based, CellTiter-Glo, cherry-picked, cytotoxicity control for Shn3 inhibitor project, dose response (AID 624134); type: functional
[6] = Shn3 3'UTR reporter signal decrease – cell-based, Clone20 osteoblasts, firefly luciferase, cherry-pick, set 2, Schnurri-3 inhibitor project, dose response (AID 720490); type: functional;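 further: actives lower the luminescence signal as inhibitors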
[7] = EF1alpha-driven Renilla reporter with control 3'UTR suppression – Clone20-Shn3RL cells, dual-Glo, cherry-pick, set 2, counter-screen for Shn3 3'UTR targeting project, dose response (AID 720724); type: functional, cell-based; details: Dual-Go Shn3RL
[8] = Luminescence Cell-Based Dose Retest to Confirm Inhibitors of Cancer Stem Cells. [Related pubchem assays (depositor defined):AID2717, AID2721]; type: functional; details: Homo sapiens
[9] = non-specific 3'UTR reporter inhibition in Clone20-Shn3RL – cell-based, Renilla luciferase, cherry-picked, counter-screen for Shn3 inhibitor project, dose response (AID 624133); type: functional
[10] = Fluorescence-based cell-based high throughput dose response assay for inhibitors of the interaction of nucleotide-binding oligomerization domain containing 2 (NOD2) and the receptor-interacting serine-threonine kinase 2 (RIPK2).; type: functional; details: Homo sapiens
[11] = biological target: T1, Replicative DNA helicase DnaB (Mycobacterium tuberculosis, UniProt P9WMR3); assay: DnaB intein splicing inhibitors, dose response, biochemical, cell-free fluorescence (AID 449749); type: functional
T1 sequence (P9WMR3 whole entry): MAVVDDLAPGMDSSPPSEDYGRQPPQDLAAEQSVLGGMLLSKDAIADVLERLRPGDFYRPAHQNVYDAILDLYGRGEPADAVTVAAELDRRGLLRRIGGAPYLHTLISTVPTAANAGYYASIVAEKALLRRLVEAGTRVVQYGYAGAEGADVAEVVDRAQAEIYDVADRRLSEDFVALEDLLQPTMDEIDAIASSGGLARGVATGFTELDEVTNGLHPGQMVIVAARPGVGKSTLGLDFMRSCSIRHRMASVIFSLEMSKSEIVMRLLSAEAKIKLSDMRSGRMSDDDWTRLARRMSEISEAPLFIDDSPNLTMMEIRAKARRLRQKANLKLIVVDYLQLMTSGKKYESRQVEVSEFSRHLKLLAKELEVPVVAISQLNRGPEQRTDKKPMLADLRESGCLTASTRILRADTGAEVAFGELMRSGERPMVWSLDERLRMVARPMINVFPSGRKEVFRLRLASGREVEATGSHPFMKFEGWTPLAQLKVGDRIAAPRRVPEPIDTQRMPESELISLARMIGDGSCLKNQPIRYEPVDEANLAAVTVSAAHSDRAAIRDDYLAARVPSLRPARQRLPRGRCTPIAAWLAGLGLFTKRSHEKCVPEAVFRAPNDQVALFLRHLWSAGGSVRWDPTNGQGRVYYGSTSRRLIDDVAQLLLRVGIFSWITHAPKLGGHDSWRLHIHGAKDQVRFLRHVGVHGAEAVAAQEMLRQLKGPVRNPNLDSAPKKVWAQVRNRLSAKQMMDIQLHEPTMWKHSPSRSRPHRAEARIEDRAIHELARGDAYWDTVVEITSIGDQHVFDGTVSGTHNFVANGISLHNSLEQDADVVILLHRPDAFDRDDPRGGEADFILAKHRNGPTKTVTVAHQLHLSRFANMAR

Protein RecA = biological target: T2, Protein RecA (Mycobacterium tuberculosis, UniProt P9WHJ3); assay: Fluorescence Cell-Free Homogeneous Dose Retest to Identify Inhibitors of RecA-Intein Splicing Activity. [Related pubchem assays (depositor defined):AID2097, AID2223, AID489010, AID492950]; type: functional
T2 sequence (P9WHJ3 whole entry): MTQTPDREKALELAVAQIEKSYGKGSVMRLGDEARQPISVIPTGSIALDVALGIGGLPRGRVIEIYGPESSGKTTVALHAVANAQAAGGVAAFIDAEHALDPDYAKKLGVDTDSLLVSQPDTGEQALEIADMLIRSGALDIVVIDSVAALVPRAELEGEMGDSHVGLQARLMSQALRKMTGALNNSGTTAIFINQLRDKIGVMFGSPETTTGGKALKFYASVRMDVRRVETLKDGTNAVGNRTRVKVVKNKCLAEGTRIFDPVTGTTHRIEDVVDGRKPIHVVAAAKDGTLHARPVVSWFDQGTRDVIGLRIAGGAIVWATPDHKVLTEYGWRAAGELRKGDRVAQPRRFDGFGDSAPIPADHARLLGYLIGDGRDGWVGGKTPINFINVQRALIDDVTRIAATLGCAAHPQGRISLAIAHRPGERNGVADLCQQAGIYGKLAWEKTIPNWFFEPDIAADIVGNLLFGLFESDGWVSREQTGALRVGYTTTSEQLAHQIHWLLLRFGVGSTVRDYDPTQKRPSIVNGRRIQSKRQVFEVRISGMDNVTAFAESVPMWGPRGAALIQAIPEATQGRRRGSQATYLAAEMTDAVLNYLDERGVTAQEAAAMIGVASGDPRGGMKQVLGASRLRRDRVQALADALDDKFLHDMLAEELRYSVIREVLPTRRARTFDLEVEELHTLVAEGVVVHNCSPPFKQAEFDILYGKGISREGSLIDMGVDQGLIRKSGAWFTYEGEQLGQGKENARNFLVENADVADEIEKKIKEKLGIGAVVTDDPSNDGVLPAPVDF

cells [12] = assay: cells
[13] = activation of miR-122 Renilla sensor silencing – cell-based, Huh7 psiCHECK-miR122, Renilla luciferase, cherry-picked, dose response (AID 651956); type: functional;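 further: huh7 hepatoma cells stably carrying a psiCHECK-2 miR-122 sensor plasmid; renilla luciferase signal reporting endogenous miR-122 activity after 48 h compound exposure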
[14] = Luminescence Cell-Based Dose Confirmation HTS to Identify Activators of 5'UTR Stem-Loop Driven Alpha-Synuclein mRNA Translation in H4 Neuroglioblastoma Cells. [Related pubchem assays: 1829 (Project Summary), 1814 (Primary HTS)]; type: functional
Cytochrome P450 3A4 = Cytochrome P450 3A4 (Homo sapiens, UniProt P08684);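 further: CYP3A4 tested as one member of a cytochrome P450 panel screen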
Chain of Cytochrome P450 3A4 (P08684 whole entry): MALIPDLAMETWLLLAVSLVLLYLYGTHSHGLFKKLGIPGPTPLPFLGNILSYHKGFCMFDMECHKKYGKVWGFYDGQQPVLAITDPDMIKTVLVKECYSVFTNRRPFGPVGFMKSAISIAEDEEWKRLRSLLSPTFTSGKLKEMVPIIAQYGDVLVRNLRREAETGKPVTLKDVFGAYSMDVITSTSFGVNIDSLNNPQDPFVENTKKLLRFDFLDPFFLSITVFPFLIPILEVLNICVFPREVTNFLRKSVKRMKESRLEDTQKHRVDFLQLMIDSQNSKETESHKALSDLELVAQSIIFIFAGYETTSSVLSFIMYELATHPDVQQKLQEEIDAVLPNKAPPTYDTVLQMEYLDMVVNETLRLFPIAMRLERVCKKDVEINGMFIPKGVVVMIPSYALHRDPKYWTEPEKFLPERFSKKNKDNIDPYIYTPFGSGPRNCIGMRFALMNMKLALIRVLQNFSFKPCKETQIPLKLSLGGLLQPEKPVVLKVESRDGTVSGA

[15] = general mammalian cell viability loss – inhibitor set, cherry-pick, set 2, cytotoxicity control for miR-122 modulator project, dose response (AID 720697); type: functional, cell-based
H4 = assay: Luminescence Cell-Based Dose Response HTS to Identify Activators of 5'UTR Stem-Loop Driven Prion Protein mRNA Translation in H4 Neuroglioblastoma Cells. [Related pubchem assays: 1829 (Project Summary), 1814 (Primary HTS)]; type: functional; details: Homo sapiens
[16] = Luminescence Cell-Based Dose Response to Identify Activators of Luciferase Translation or Activity in H4-C Neuroglioblastoma Cells. [Related pubchem assays: 1829 (Project Summary), 1814 (Primary HTS)]; type: functional
[17] = general mammalian cell viability loss – activator set, cherry-pick, cytotoxicity control for miR-122 modulator project, dose response (AID 720690); type: functional, cell-based;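 further: HEK293T human cells scored for general mammalian cytotoxicity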
[18] = Luminescence Cell-Based Dose Response HTS to Identify Activators of Luciferase Translation or Activity in H4 […] Cells. [Related pubchem assays: 1829 (Project Summary), 1814 (Primary HTS)]; type: functional
[19] = Luminescence Cell-Based Dose Response to Identify Activators of 5'UTR Stem-Loop Driven Prion Protein mRNA Translation in H4-C Neuroglioblastoma Cells. [Related pubchem assays: 1829 (Project Summary), 1814 (Primary HTS)]; type: functional
[20] = Luminescence Cell-Based Dose Confirmation to Identify Activators of 5'UTR Stem-Loop Driven Alpha-Synuclein mRNA Translation in H4 Neuroglioblastoma Cells. [Related pubchem assays: 1829 (Project Summary), 1814 (Primary HTS)]; type: functional
[21] = biological target: T3, Oxysterols receptor LXR-beta (Homo sapiens, UniProt P55055); type: functional, cell-based;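 further: agonist activity at LXR measured by a cell-based luminescence readout across a dose range, run as a counterscreen for daf-12 agonists; HEK293 cells with Gal4-LXR fusion and GAL4-driven luciferase reporter; potency for activation of Gal4-LXR reporter so compounds are agonists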
T3 sequence (P55055 whole entry): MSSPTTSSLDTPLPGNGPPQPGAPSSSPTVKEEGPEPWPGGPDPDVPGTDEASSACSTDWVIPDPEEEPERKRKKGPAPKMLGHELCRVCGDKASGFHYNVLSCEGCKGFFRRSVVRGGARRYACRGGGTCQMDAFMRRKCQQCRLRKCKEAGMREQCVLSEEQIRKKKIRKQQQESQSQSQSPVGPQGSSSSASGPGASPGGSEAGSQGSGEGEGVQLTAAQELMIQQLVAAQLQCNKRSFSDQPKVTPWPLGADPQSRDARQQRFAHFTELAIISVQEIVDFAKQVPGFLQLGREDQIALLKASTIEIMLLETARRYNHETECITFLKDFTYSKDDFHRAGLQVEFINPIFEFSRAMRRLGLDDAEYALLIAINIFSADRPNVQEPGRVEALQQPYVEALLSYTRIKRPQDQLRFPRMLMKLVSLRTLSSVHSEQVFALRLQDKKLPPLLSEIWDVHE

[22] = HEK293 Cytotoxicity Assay Measured in Cell-Based System Using Plate Reader - 7071-01_Inhibitor_Dose_CherryPick_Activity_Set2.; type: functional
HEK293 = assay: viability loss in HEK293T cells – cell-based, ATP luminescence, cherry-pick samples, cytotoxicity control, dose response (AID 687005); type: functional; details: Homo sapiens;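 further: cells exposed to compound for 48 hours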
[23] = biological target: Potassium channel subfamily K member 3 (Homo sapiens, UniProt O14649); assay: inhibition of human KCNK3 channel flux – CHO cells, FluxOR thallium flux, SAR follow-up (AID 652212); type: functional
Chain of Potassium channel subfamily K member 3 (O14649 whole entry): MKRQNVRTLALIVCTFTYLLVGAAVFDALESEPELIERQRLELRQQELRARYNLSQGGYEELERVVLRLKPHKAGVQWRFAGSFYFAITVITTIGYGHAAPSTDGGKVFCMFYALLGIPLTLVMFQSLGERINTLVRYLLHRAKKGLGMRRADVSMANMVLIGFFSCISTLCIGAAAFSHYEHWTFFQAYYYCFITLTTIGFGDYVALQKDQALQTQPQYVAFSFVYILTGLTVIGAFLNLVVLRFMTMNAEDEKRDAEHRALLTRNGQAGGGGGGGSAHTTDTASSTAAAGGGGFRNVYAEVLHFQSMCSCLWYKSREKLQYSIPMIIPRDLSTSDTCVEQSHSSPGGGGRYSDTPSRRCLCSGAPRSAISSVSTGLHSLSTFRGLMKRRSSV

[24] = human cervical cancer cell viability loss – 24 h, plate reader, dry powder, cytotoxicity control, dose response (AID 686928); type: functional, cell-based; details: HeLa
[25] = HEK293T viability loss – cell-based, ATP luminescence, dry powder, Set6, cytotoxicity control, dose response (AID 743142); type: functional; details: HEK293
[26] = viability loss in A549 lung cancer cells – cell-based, CellTiter-Glo luminescence, dry powder, set 3, cytotoxicity control, dose response (AID 743146); type: functional
[27] = MITF Orthogonal Assay: SK-MEL-5 CTG Assay Measured in Cell-Based System Using Plate Reader - 2084-02_Inhibitor_Dose_DryPowder_Activity_Set7.; type: functional
[28] = inhibitors of TRPM1-promoter reporter in SK-MEL-5 – cell-based, luciferase, dry powder, set 8, MITF inhibitor project, dose response (AID 624430); type: functional
[29] = MITF: Counter assay: A375 proliferation Measured in Cell-Based System Using Plate Reader - 2084-03_Inhibitor_Dose_DryPowder_Activity_Set8.; type: functional; details: A-375
[30] = biological target: Metabotropic glutamate receptor 3 (Rattus norvegicus, UniProt P31422); assay: inhibition of rat mGlu3 glutamate signaling – HEK/GIRK cells, thallium flux, dose response (AID 651839); type: functional
Chain of Metabotropic glutamate receptor 3 (P31422 whole entry): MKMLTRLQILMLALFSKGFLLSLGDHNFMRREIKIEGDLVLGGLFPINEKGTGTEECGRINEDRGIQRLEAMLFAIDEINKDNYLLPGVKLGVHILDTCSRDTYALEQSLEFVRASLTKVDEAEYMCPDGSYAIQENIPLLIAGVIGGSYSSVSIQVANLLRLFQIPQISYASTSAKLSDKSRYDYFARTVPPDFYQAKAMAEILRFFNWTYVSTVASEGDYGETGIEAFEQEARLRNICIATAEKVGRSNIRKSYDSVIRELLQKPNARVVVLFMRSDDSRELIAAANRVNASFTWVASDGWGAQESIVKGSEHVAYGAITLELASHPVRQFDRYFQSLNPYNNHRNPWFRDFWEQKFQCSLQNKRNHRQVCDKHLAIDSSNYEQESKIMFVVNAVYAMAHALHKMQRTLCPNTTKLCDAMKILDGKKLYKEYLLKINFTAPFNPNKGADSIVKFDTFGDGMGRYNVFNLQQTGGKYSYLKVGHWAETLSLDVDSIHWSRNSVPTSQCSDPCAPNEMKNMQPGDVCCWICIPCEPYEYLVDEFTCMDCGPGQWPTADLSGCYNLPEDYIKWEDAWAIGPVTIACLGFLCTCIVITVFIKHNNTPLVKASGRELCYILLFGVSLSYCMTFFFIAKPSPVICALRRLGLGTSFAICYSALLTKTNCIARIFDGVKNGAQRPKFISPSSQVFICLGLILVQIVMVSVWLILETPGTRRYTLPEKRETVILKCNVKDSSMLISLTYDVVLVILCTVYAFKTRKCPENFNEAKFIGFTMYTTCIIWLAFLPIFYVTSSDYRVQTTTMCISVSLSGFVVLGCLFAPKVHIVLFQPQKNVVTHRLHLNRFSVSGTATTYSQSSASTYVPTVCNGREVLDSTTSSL

[31] = M. tuberculosis growth inhibition, HTS (AID 449762); type: functional
Cytochrome P450 2C9 = Cytochrome P450 2C9 (Homo sapiens, UniProt P11712)
Chain of Cytochrome P450 2C9 (P11712 whole entry): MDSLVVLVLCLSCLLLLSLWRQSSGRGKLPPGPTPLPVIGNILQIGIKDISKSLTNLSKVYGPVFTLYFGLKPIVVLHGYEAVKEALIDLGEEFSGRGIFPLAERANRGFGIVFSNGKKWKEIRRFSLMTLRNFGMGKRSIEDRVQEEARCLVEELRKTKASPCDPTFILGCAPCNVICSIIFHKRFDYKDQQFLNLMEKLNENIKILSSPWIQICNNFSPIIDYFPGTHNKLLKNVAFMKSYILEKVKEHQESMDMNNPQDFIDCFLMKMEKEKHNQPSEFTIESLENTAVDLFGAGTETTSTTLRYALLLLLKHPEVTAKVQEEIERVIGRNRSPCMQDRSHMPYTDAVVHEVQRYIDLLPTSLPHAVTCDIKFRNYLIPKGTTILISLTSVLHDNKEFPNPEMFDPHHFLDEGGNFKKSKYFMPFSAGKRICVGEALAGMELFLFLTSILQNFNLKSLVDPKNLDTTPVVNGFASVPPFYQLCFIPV

NS3 = NS3 (Hepatitis C virus, UniProt A3EZJ3); assay: NS3h DNA-binding inhibition IC50 – biochemical, fluorescence polarization, ChemBridge library, dose response (AID 743264)
Chain of NS3 (A3EZJ3 whole entry): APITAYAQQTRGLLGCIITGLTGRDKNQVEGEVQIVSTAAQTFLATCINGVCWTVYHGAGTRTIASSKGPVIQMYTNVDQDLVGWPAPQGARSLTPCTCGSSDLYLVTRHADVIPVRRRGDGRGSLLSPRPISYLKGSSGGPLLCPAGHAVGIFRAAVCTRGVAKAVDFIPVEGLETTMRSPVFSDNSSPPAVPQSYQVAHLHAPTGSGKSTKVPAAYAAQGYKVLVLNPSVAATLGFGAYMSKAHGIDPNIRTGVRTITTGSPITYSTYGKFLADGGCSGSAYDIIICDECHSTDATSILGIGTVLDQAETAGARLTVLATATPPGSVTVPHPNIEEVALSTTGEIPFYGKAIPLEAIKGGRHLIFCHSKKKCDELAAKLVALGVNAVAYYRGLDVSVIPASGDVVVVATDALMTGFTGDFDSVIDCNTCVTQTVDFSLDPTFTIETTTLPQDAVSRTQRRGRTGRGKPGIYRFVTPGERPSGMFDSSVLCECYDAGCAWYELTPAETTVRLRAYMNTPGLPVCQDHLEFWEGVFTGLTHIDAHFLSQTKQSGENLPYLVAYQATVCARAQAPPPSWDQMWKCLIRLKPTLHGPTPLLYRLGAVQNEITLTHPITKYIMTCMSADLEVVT

COc1ccc(-c2cc(C(F)(F)F)nc(S(C)(=O)=O)n2)cc1
AC50 [1]: 4.46 µM (active) | CC50 [2]: 26 µM (active) | IC50 (cells [3]): 10.9 µM (active) | AC50 [4]: 15.3 µM (active) | AC50 [5]: 45.9 µM (active) | AC50 [6]: 5.05 µM (active) | AC50 [7]: 48.6 µM (active) | AC50 [8]: 3.81 µM (active) | AC50 [9]: 26.3 µM (active) | IC50 [10]: 5.47 µM (active) | AC50 [11]: 5.99 µM (active) | EC50 (Protein RecA): 4.88 µM (active)

COc1cc(C(=O)NCCCNc2nc3c(C)cc(C)cc3cc2C#N)cc(OC)c1OC
AC50 (cells [12]): 4.79 µM (active)

CCOC(=O)c1cc2c(C)n(-c3ccc(C)cc3)c(C)c2ccc1=O
AC50 [13]: 1.46 µM (active) | EC50 [14]: 0.1 µM (active) | AC50 (Cytochrome P450 3A4): inconclusive | AC50 [15]: 7.08 µM (active) | EC50 (H4): < 0.1 µM (active) | EC50 [16]: 0.376 µM (active) | AC50 [17]: 3.93 µM (active) | EC50 [18]: < 0.1 µM (active) | EC50 [19]: 0.333 µM (active) | EC50 [20]: 0.262 µM (active)

Cc1ccc(N/C=C(/C#N)c2ccsc2)cc1C
EC50 [21]: > 67.5 µM (inactive)

COc1ccccc1-c1ccc([C@H]2[C@H](C#N)N(C(=O)C3CC3)[C@H]2CO)cc1
AC50 [22]: 24.8 µM (active) | AC50 (HEK293): 24.8 µM (active)

CCOc1ccccc1NC(=O)c1cccc(C(=O)NC2CCCC2)c1
IC50 [23]: 0.342 µM (active)

O=C(Nc1nnc(C2CCCC2)o1)C1CCCCC1
AC50 [24]: 165 µM (active)

O=C(CCNC(=O)c1ccc(C(F)(F)F)cc1)N[C@@H]1CCCc2ccccc21
AC50 [25]: 7.54 µM (active) | AC50 [26]: 26 µM (active)

COc1ccc(NC2=C(N3CCN(C(C)C)CC3)C(=O)c3ccccc3C2=O)cc1
AC50 [27]: 16.6 µM (active) | AC50 [28]: 3.28 µM (active) | AC50 [29]: 45 µM (active)

COc1ccc(-c2ccc3cc(C(=O)N4CCCC(CO)C4)ccc3c2)cn1 (configuration not stated)
IC50 [30]: 6.77 µM (active)

O=C(O)Cc1c[nH]c2ccc(O)cc12
IC50 [31]: > 100 µM (active) | AC50 (Cytochrome P450 2C9): inconclusive | IC50 (NS3): 69.3 µM (active)
